Values quoted from earlier work, collected in patent US20240024490A1, “BIFUNCTIONAL MOLECULES FOR SELECTIVE MODIFICATION OF TARGET SUBSTRATES” (The Broad Institute, Inc., priority 2021, published 2024).
Like-named read-outs stand apart in the source and are kept apart here.

Tests used:
[1] = cited from earlier work
C26 = conditions: cited from earlier work
BT-474 (breast) = conditions: cited from earlier work
KU-19-19 (bladder) = conditions: cited from earlier work
MCF-7 (breast) = conditions: cited from earlier work
[2] = test system: LPS-stimulated THP-1 cells; conditions: read-out: IC50, block of TNFα release; cited from earlier work
[3] = test system: EGFR(L858R/T790M/C797S) tumors; conditions: in vivo; cited from earlier work
[4] = test system: screening panel of kinases; conditions: 1000 nM EAI045; cited from earlier work
MS751 cervical carcinoma = conditions: read-out: IC50, proliferation; cited from earlier work
KOPN-8 = conditions: cited from earlier work
LAX2 = conditions: cited from earlier work
SEM cells = conditions: cited from earlier work
697 cells = conditions: cited from earlier work
ICN13 = conditions: cited from earlier work
REH = conditions: cited from earlier work
Z138 = conditions: read-out: IC50, proliferation; cited from earlier work
OP-1 = conditions: cited from earlier work
[5] = test system: Molt-4 (T cell acute lymphoblastic leukemia) xenografts; conditions: SCID mice; cited from earlier work
RS4 = conditions: cited from earlier work
Nalm6 = conditions: cited from earlier work
LAX7R = conditions: cited from earlier work
SupB15 = conditions: cited from earlier work
[6] = test system: CD138-purified multiple myeloma (MM) cells from patients; conditions: cited from earlier work
RIPK-1 = RIPK-1 (Homo sapiens, UniProt Q13546); conditions: cited from earlier work
FGFR2 = conditions: read-out: IC50, FGF1-induced ERK phosphorylation via FGFR2; cited from earlier work
[7] = in vivo; cited from earlier work
p-ERK1/2 = conditions: cited from earlier work
PTK2 = conditions: prostate cancer cells; read-out: IC50, autophosphorylation of PTK2; cited from earlier work
Crk-L = conditions: cited from earlier work
[8] = cited from earlier work; remark: listed apart in the source
NCI-H441 cells [9] = conditions: read-out: viability IC50; cited from earlier work
NCI-H441 cells [10] = conditions: read-out: phosphor-MET IC50; cited from earlier work
NCI-H441 cells [11] = conditions: read-out: Invasion IC50; cited from earlier work
c-Met = molecular target: T1, c-Met (Homo sapiens, UniProt P08581); conditions: cited from earlier work
T1 construct: host or cells: NCI-H441 (as the sentence says)
T1 sequence (P08581 25-1390): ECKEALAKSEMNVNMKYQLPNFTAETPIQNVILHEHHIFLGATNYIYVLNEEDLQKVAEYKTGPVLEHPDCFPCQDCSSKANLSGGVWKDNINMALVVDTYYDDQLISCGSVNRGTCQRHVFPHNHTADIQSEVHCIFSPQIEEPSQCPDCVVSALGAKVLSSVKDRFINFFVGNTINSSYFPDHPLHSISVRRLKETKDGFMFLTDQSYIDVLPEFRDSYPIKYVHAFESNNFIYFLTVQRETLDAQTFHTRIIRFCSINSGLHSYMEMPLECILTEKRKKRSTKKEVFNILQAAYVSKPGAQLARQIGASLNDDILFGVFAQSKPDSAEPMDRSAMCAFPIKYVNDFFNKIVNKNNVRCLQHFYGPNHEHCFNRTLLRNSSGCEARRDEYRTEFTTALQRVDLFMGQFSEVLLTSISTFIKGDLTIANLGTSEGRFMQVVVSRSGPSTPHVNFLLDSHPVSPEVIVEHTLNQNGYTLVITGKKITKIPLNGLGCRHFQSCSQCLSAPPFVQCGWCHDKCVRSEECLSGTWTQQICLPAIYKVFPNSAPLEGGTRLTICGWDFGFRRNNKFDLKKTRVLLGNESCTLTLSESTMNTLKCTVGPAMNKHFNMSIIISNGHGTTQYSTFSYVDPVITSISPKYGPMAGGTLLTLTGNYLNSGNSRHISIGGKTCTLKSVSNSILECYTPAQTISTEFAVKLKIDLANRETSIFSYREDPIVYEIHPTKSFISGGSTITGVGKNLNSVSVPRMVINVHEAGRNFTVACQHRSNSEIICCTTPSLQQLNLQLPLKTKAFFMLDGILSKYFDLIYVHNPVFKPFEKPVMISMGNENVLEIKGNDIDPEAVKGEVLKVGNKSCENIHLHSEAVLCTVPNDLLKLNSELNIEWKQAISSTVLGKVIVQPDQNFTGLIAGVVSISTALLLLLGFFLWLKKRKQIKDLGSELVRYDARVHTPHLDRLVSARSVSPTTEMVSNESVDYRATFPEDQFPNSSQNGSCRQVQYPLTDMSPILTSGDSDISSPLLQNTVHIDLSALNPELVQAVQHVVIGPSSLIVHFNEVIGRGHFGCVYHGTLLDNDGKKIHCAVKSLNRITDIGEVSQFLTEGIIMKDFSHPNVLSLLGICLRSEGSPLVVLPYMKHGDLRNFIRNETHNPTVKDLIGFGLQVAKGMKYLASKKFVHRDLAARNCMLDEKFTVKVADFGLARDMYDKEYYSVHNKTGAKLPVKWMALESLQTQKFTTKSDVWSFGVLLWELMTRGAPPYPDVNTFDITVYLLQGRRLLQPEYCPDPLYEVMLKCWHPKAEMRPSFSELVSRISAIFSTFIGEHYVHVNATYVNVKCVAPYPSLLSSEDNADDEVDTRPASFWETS

Sequence of RIPK-1 (Q13546 whole entry, species assumed): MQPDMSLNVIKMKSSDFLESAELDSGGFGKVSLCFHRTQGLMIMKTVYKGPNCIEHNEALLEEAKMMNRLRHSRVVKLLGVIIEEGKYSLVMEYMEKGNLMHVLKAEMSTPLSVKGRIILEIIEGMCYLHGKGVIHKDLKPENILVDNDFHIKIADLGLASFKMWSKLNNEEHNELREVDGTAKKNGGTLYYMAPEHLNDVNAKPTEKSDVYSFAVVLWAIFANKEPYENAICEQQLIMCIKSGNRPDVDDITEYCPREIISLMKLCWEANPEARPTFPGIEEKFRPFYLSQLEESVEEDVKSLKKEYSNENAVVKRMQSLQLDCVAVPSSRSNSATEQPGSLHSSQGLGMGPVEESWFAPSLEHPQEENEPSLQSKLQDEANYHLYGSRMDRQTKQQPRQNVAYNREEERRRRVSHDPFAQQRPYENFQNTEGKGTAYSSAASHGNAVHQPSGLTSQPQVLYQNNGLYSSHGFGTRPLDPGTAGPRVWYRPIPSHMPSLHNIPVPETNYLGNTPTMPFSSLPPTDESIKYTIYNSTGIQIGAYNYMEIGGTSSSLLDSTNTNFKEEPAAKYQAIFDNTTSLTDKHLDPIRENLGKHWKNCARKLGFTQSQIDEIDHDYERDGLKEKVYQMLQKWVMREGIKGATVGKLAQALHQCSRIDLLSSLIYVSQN

O=C(NOCC1CC1)c1ccc(F)c(F)c1Nc1ccc(I)cc1Cl [24 (CI-1040), CI-1040]
Sol (pH 6.5) [1]: <1 μg/mL
IC50 (C26): 35 nM

C=CC(=O)Nc1ccc2[nH]c(=O)n(C3CCN(Cc4ccc(-c5nc6cc[nH]c(=O)c6cc5-c5ccccc5)cc4)CC3)c2c1 [Borussertib]
EC50 (BT-474 (breast)): 373 ± 54 nM
EC50 (KU-19-19 (bladder)): 7770 ± 641 nM
EC50 (MCF-7 (breast)): 277 ± 90 nM

Cc1ccc(-n2nc(C(C)(C)C)cc2NC(=O)Nc2ccc(OCCN3CCOCC3)c3ccccc23)cc1 [Doramapimod]
IC50 [2]: 18 nM

O=C(Nc1nccs1)C(c1cc(F)ccc1O)N1Cc2ccccc2C1=O (stereo not shown) [EAI045]
efficacy in xenograft models [3]: effective
inhibition of any other kinases in screening panels [4]: ≤ 20%

Nc1ccc(/C=C/C(=O)NCc2cc3cc(-c4ccc(C(=O)N5CCC(F)(F)CC5)cc4)cc(-c4ccc(F)cc4)c3o2)cn1 [KPT-9274]
IC50 (MS751 cervical carcinoma): < 100 nM
IC50 (KOPN-8): 2.4 nM
IC50 (LAX2): 19.4 nM
IC50 (SEM cells): > 10000 nM
IC50 (697 cells): 16.7 nM
IC50 (ICN13): 25.9 nM
IC50 (REH): 14.3 nM
IC50 (Z138): < 100 nM
IC50 (OP-1): 18 nM
effect on xenografts [5]: induces shrinkage
IC50 (RS4): 5.6 nM
IC50 (Nalm6): 19 nM
IC50 (LAX7R): 32.7 nM
IC50 (SupB15): 22.6 nM

O=C(NC[C@H](O)CO)c1ccncc1Nc1ccc(I)cc1F [Pimasertib]
IC50 [6]: 2 to 200 nM

CCC(C)(C)C(=O)N(O)Cc1ccccc1 [RIPA-56]
pIC50 (RIPK-1): 7.9

COc1c(C)c(C(=O)c2ccc(N)c(C(=O)O)c2)n2ccccc12 [SSR128129E]
IC50 (FGFR2): < 100 nM

CC(=O)Nc1cccc(-n2c(=O)n(C3CC3)c(=O)c3c(Nc4ccc(I)cc4F)n(C)c(=O)c(C)c32)c1 [Trametinib, Trametnib]
Absorption/distribution of an oral dose [7]: 72%
sustained suppression of p-ERK1/2 (p-ERK1/2): more than 24 hours

CN1c2ccc(NCc3ccc(C(C)(C)C)cc3)cc2-c2c(cnn2C)S1(=O)=O [compound 30]
IC50 (PTK2): 7100 nM

N#CCCC(=O)NC1=NN(c2ccc(Cl)c(Cl)c2)CC1 [compound 32]
Fold Increase phCRKE Vs Total Crk-L (normalised) (Crk-L; 40 min): 19x
Fold Increase phCRKE Vs Total Crk-L (normalised) (Crk-L; 180 min): 35x
In Vitro Clearance [8]: <0.01 mL/min/mg protein

O=C1NC(=O)[C@@H](c2cn3c4c(cccc24)CCC3)[C@@H]1c1c[nH]c2ccccc12 [tivantinib]
IC50 (NCI-H441 cells [9]): 100 nM
IC50 (NCI-H441 cells [10]): 100 nM
IC50 (NCI-H441 cells [11]): 80 nM
pKi (c-Met): 6.4
selectivity for c-Met over other kinases tested (c-Met): 10-100 time
IC50 (c-Met; read-out: Enzyme IC50): 50 nM
